Legend:
[1] = design: method as in PMID 2886318; settings: rats, cited from earlier work
[2] = Busulphan kinetics in mice (alone, after PTU pretreatment, or with high-dose THT); settings: for AUC / Cmax: male, C57BL/6N, mouse, plasma, ip, 25 mg/kg, mean
Description: (§5) Male C57BL/6N mice (6–8 weeks old) were purchased from Charles River (Cologne, Germany). The mice were allowed to acclimatize to the surroundings for 2 weeks with a 12h dark/12h light cycle and randomized for treatment. Standard laboratory chow and water ad libitum was introduced.
(§6) To study Bu and THT kinetics, Bu (Sigma-Aldrich, Steinheim, Germany) was administered i.p. (25mg/kg or 100μmol/kg) as a 2mM solution in DMSO (Sigma-Aldrich, Stockholm, Sweden) [21]. THT was also prepared as a 2mM solution in DMSO and the dose given was equimolar to the Bu treatment (i.e. 100μmol/kg or 8.8 mg/kg). Upon injection, samples were diluted with physiological NaCl solution to a final DMSO concentration of 10% in the dosing solution. At the appropriate time points (10min, 30min, 1h, 2h, 4h, 6h and 8h), mice (three mice at each time point) were anesthetized using 2% isoflurane and the blood samples were collected by heart puncture. Mice were euthanized by cervical dislocation. Plasma was separated and stored at -20°C.
(§7) PTU (3mg/kg) was dissolved in DMSO and diluted with physiological NaCl solution and then injected into the mice once daily followed by Bu or THT injections on the 4th day. The mice were euthanized and plasma samples prepared as in the previous experiment.
(§8) To detect the effect of high THT concentrations on Bu metabolism, a third group of mice was injected with both Bu (100μmol/kg) and a high dose of THT (17.6mg/kg or 200μmol/kg) and samples prepared as described previously. All experiments including negative controls (mice injected with 10% DMSO in NaCl solution) and mice injected with PTU alone were performed in triplicates.
(§9) To quantify Bu, samples were extracted according to the method reported previously by Hassan et al. [24]. Briefly, 500 μL of plasma were diluted with 500 μL of water. Fifty microliters of the internal standard (1,5-bis(methanesulfonoxy)pentane; 38.5 μM) were added, followed by the addition of 1 mL of sodium iodide (8M, Merck, Darmstadt, Germany) and 400μL of n-heptane (Merck, Darmstadt, Germany). The tubes were placed under magnetic stirring in a water bath (70°C) for 45 min. During the reaction, busulphan and 1,5-bis(methanesulfonoxy)pentane were converted to 1,4-diiodobutane and 1,5-diiodopentane respectively and subsequently extracted with n-heptane [25]. The conversion of busulphan and 1,5-bis(methanesulfonoxy)pentane to 1,4-diiodobutane and 1,5-diiodopentane was over 90% [24]. The organic phase was analyzed by GC-MS [18]. THT was quantified as described previously and the method was validated for use with mouse plasma before measuring both Bu and THT [19, 20].
(§10) Kinetic parameters from in vivo studies were estimated using WinNonLin software (standard edition, version 2.0), while Microsoft Excel and SigmaPlot software (version 12.5, Systat software, Inc.) were utilized for in vitro kinetics.

GSTA1 mRNA = assay: Gene expression in patients conditioned with busulphan (gene array); format: in vivo, human; settings: oral Bu 2mg/kg b.i.d. for 4 days
Description: (§1) FMO3 mRNA expression was studied in twelve patients undergoing HSCT at the Center for Allogeneic Stem Cell Transplantation (CAST), Karolinska University Hospital-Huddinge, Sweden. The study was approved by the ethical committee of Karolinska Institutet (616/03) in accordance with the Helsinki Declaration of 1975 and with informed consent from each patient or their guardian. All patients were treated with oral Bu, administered at a dose of 2mg/kg (8μmol/kg) b.i.d. for 4 days followed by an i.v. infusion of cyclophosphamide (Cy) 60mg/kg/day (230μmol/kg/day) once daily for 2 days before the stem cell infusion.
(§2) Blood samples for mRNA quantification were collected in PAXgene^TM blood RNA tubes (BD, Stockholm, Sweden) prior to the start of Bu treatment and after the last Bu dose.
(§3) RNA was extracted from the mononuclear cells using QuickPreps^TM Total RNA Extraction Kit (GE Life Sciences, Uppsala, Sweden). RNA (1μg) was reverse transcribed to complementary DNA (cDNA) using the TaqMan^TM Kit (Applied Biosystems, Roche, NJ, USA).
(§4) Purified mRNA was subjected to analysis of global gene expression by using NimbleGen microarrays (Roche Diagnostics Scandinavia, Bromma, Sweden). Data were analyzed by Genespring GX (Agilent, CA, USA). Quantile normalization was used on the probe expression data generated using the Robust Multichip Average algorithm.

FMO3 mRNA = assay: Gene expression in patients conditioned with busulphan (gene array, qRT-PCR); format: in vivo, human; settings: oral Bu 2mg/kg b.i.d. for 4 days, normalized to GAPDH
Description: as §1, §2, §3
as §4, with “algorithm. […]” for “algorithm.”

[3] = Busulphan and THT plasma kinetics in a patient treated concomitantly with voriconazole; format: in vivo, human; settings: Bu 2mg/kg b.i.d. with concomitant voriconazole
Description: In order to confirm the contribution of FMO3 to human Bu kinetics, blood samples were collected (routinely) from a patient who underwent stem cell transplantation and was conditioned according to the hospital transplantation protocol i.e. high dose of Bu (2mg/kg b.i.d.) for four days followed with two days of cyclophosphamide (60mg/kg). […] Voriconazole was administered, according to the hospital clinical protocol, for the treatment of an acute fungal infection.
Samples were taken for therapeutic drug monitoring (TDM) at several time points after the first, third and fifth doses. Blood was collected into EDTA vacutainer tubes, plasma was separated by centrifugation at 1200 g and stored at -20°C until analysis of Bu and THT [18].

in vivo = settings: male, C57BL/6N, mouse, plasma, ip, 25 mg/kg
Description: as §5, §6, §7, §8, §9, §10

[4] = cited from earlier work
[5] = within 72 hours of administration
[6] = Group 1: mice, Bu 25mg/kg i.p. alone
[7] = Group 2: mice, Bu 25mg/kg i.p. after PTU 3mg/kg i.p. once daily for 3 days

Row | AUC [2, 6] | AUC [2, 7] | Cmax [2, 6] | Cmax [2, 7] | Bu plasma concentrations and Bu exposure (AUC) versus Bu alone ([2]; mice treated with FMO3 inhibitor PTU before Bu administration) | levels of Bu versus Bu alone ([2]; mice, concomitant administration of THT and Bu) | Bu levels versus same dose of Bu administered alone [3] | Bu clearance versus a patient treated with Bu alone ([3]; P<0.05) | AUC (in vivo) | Cmax (in vivo) | SMILES | share of Bu excreted in urine as this metabolite [1, 5] | Bu excreted in the urine as unchanged drug [1] | Bu excreted in the form of its subsequent metabolites [1, 5] | GSTA1 mRNA after Bu conditioning versus before (GSTA1 mRNA) | FMO3 mRNA after Bu conditioning versus before (FMO3 mRNA) | decrease of Bu clearance ([4]; child with AML, after two days concomitant metronidazole) | daily AUC in excess of the predicted ([4]; child with AML, concomitant metronidazole) | mean Bu trough levels with concomitant metronidazole ([4]; patients undergoing HSCT)
1 |  |  |  |  |  |  |  |  |  |  | O=S1(=O)CCC(O)C1 (stereo not shown) [3-OH-sulfolane, 3-hydroxysulfolane] | 39% |  |  |  |  |  |  | 
2 | 44.3 µM·h | 65.3 µM·h | 7.47 µM | 25.5 µM | significantly (P<0.05, t-test) higher | higher levels | higher than expected | slower | 65.5 µM·h | 16.5 µM | CS(=O)(=O)OCCCCOS(C)(=O)=O [Bu, Busulphan] |  | 2% | more than 70% | significantly up-regulated | significant up-regulation | 46% | 86% | two-fold higher
3 |  |  |  |  |  |  |  |  |  |  | [O-][S+]1CCCC1 [THT 1-oxide, tetrahydrothiophene 1-oxide] | 20% |  |  |  |  |  |  | 

From publication PMC5679629, “Flavin-containing monooxygenase 3 (FMO3) role in busulphan metabolic pathway” (PLoS ONE, 2017)
